# Test results: the supplement of paper PMC3493320
# System: NCI-H295R
# Assay: IC50 (antiproliferative, ATP content)
# Conditions: 48 h
# Outline: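 In 1536-well plates, 1500 adrenocortical carcinoma cells per well were grown overnight in serum-free, ITS-supplemented DMEM before compounds were pin-transferred at 8 final concentrations (0.6 nM to 46 µM). After 48 h at 37 °C and 5% CO2, CellTiter-Glo luminescence was read following 20 min at room temperature and normalised to vehicle and positive-control wells. IC50 values came from logistic curve fits, with compounds lacking any concentration response listed as above the top dose.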
row,Compound,IC50 [µM]
1,C[C@]41/C=C\C(=O)\C=C4\C(=C)C[C@H]2[C@@H]3CCC(=O)[C@@]3(C)CC[C@H]12,> 46
2,Cn1c(=O)c2c(ncn2C)n(C)c1=O.O=C(O)CC(O)(CC(=O)O)C(=O)O,> 46
3,ClCC1CO1 (stereo not given),> 46
4,COc1cc2c(cc1OC)C1CC(=O)C(CC(C)C)CN1CC2 (stereo not given),> 46
5,CN1CCN(CCCN2c3ccccc3Sc3ccc(S(=O)(=O)N(C)C)cc32)CC1.CS(=O)(=O)O.CS(=O)(=O)O,> 46
6,CC(C)NNC(=O)c1ccncc1.O=S(=O)(O)O,> 46
7,CNC1(c2ccccc2Cl)CCCCC1=O (stereo not given),> 46
8,[NH2][Pt]1([NH2])[O]C(=O)C2(CCC2)C(=O)[O]1,> 46
9,CC(Cc1ccccc1)NCc1ccccc1Cl.Cl (stereo not given),> 46
10,Clc1cccc(SC2CCNCC2)n1,> 46
11,CCCCC/C=C\C/C=C\C/C=C\C/C=C\CCCC(=O)NCC(=O)O,> 46
12,CNCC(O)c1ccc(O)cc1 (stereo not given),> 46
13,C[C@]12CCC(=O)C(O)=C1CC[C@@H]1[C@@H]2CC[C@]2(C)C(=O)CC[C@@H]12,> 46
14,NC1=NC(=O)N2CC12 (stereo not given),> 46
15,NCCCNCCSP(=O)(O)O,> 46
16,CC[N+](CC)(CC)CC.[Cl-],> 46
17,NS(=O)(=O)c1ccc(Cl)c(S(N)(=O)=O)c1,> 46
18,CC(C)(C)CC(C)(C)c1cc(Cc2cc(C(C)(C)CC(C)(C)C)cc(-n3nc4ccccc4n3)c2O)c(O)c(-n2nc3ccccc3n2)c1,> 46
19,CN/C(=C\[N+](=O)[O-])NCCSCc1ccc(CN(C)C)o1,> 46
20,CNC[C@H](O)[C@@H](O)[C@H](O)[C@H](O)CO,> 46
21,CC(C)N1CCN(c2ccc(OC[C@H]3COC(Cn4cncn4)(c4ccc(Cl)cc4Cl)O3)cc2)CC1 (stereo not given in full),> 46
22,COc1cc(NS(=O)(=O)c2ccc(N)cc2)nc(OC)n1,> 46

row,Compound,IC50 [µM]
1,CC(C(=O)O)c1ccc2c(c1)Cc1cccnc1O2 (stereo not given),> 46
2,CC(C)(C(=O)c1cccnc1)c1cccnc1,> 46
3,CC(C)C(Br)C(=O)NC(N)=O (stereo not given),> 46
4,CCN(CC)C(=O)N[C@H]1C[C@@H]2c3cccc4[nH]cc(c34)C[C@H]2N(C)C1,> 46
5,CC(=O)OO,> 46
6,CCOc1ccccc1O[C@H](c1ccccc1)[C@H]1CNCCO1.CS(=O)(=O)O,> 46
7,CN[C@@H]1[C@@H](O[C@H]2O[C@H](CO)[C@@H](N)[C@H](O)[C@H]2O)O[C@H]2C[C@@H](N)[C@@H](O[C@H]3[C@H](O)[C@@H](O)[C@H](N)C[C@@H]3N)O[C@@H]2[C@@H]1O,> 46
8,COc1cc2nc(N3CCN(C(=O)C4COc5ccccc5O4)CC3)nc(N)c2cc1OC.CS(=O)(=O)O (stereo not given),> 46
9,Cc1ccc(S(=O)(=O)NC(=O)NN2CC3CCCC3C2)cc1 (stereo not given),> 46
10,CN[C@@H]1[C@H](O[C@H]2[C@H](O[C@H]3[C@H](O)[C@@H](O)[C@H](NC(=N)N)[C@@H](O)[C@@H]3NC(=N)N)O[C@@H](C)[C@]2(O)C=O)O[C@@H](CO)[C@H](O)[C@H]1O.CN[C@@H]1[C@H](O[C@H]2[C@H](O[C@H]3[C@H](O)[C@@H](O)[C@H](NC(=N)N)[C@@H](O)[C@@H]3NC(=N)N)O[C@@H](C)[C@]2(O)C=O)O[C@@H](CO)[C@H](O)[C@H]1O.O=S(=O)(O)O.O=S(=O)(O)O.O=S(=O)(O)O,> 46
11,CCOc1ccc2nc(S(N)(=O)=O)sc2c1,> 46
12,COc1cc2c(cc1OC)CC(=O)N(CCCN(C)C[C@H]1Cc3cc(OC)c(OC)cc31)CC2.Cl,> 46
13,c1ccc(C2CC2)c(OCC2=NCCN2)c1,> 46
14,Cc1ccccc1-n1c(CF)nc2ccc(N)cc2c1=O,> 46
15,Cn1nnnc1SCC1=C(C(=O)[O-])N2C(=O)[C@@H](NC(=O)[C@H](O)c3ccccc3)[C@H]2SC1.[Na+],> 46
16,O=[C@](N[C@@H](C)CO)[C@@H](C4)C=C(C2=C1C(C3)=CNC1=CC=C2)[C@]3([H])N4C,> 46
17,O=C(O)c1ccc(OCCn2ccnc2)cc1,> 46
18,C=CCOc1ccccc1OCC(O)CNC(C)C.Cl (stereo not given),> 46
19,CC(C)NCC(O)c1ccc(NS(C)(=O)=O)cc1.Cl (stereo not given),> 46
20,CCN(CC)Cc1cc(Nc2ccnc3cc(Cl)ccc23)ccc1O.Cl.Cl.O.O,> 46
21,C[C@H](O)[C@H](O)[C@H]1CNc2[nH]c(N)nc(=O)c2N1.Cl.Cl,> 46
22,O=C(O)c1cc(O)c(O)c(O)c1,> 46

# Now from value to molecule:
row,IC50 [µM],Compound
1,> 46,CCOC(=O)n1ccn(C)c1=S
2,> 46,O=c1ccc2ccccc2o1
3,> 46,c1ccc2c(c1)Sc1ccccc1N2CCN1CCCC1
4,> 46,CC(C)C[C@@H](N)C(=O)O
5,> 46,O=C(Nc1ccc(O)cc1)c1ccccc1O
6,> 46,CC1=Nc2ccc(Cl)cc2S(=O)(=O)N1
7,> 46,CO/N=C(\C(=O)N[C@@H]1C(=O)N2C(C(=O)[O-])=CCS[C@H]12)c1csc(N)n1.[Na+]
8,> 46,CCN(CC)CCOc1ccccc1C(=O)CCc1ccccc1
9,> 46,NC(=O)c1cccnc1
10,> 46,COc1cc(N)c(Cl)cc1C(=O)NC1CCN(CCCOc2ccc(F)cc2)CC1OC (stereo not given)
11,> 46,CCN(CC)CCNC(=O)c1ccc(NC(C)=O)cc1.Cl
12,> 46,O=C2O[C@H](C)C/C=C/C=C/C=C/C=C/[C@H](O[C@@H]3O[C@H](C)[C@@H](O)[C@H](N)[C@@H]3O)C[C@]([C@H]([C@@](O)=O)[C@@H](O)C4)([H])O[C@]4(O)C[C@@H](O)C[C@@]1([H])O[C@@]([H])1/C=C/2
13,> 46,CC(=O)Nc1ncc([N+](=O)[O-])s1
14,> 46,Cl.NCCO/C=C/[C@H](N)C(=O)O
15,> 46,Cc1cc(C)c(C=C2C(=O)Nc3ccccc32)[nH]1
16,> 46,O=C1[O][Bi]([OH])[O]c2ccccc21
17,> 46,O=C(NCCN1CCOCC1)c1ccc(Cl)cc1
18,> 46,CC(=O)Oc1c(C)c(C)c2c(c1C)CCC(C)(CCCC(C)CCCC(C)CCCC(C)C)O2 (stereo not given)
19,> 46,O=C(C=Cc1ccccc1)OCc1ccccc1

row,IC50 [µM],Compound
1,> 46,Cc1ccc(O)c(-n2nc3ccccc3n2)c1
2,> 46,COc1cc(S(C)=O)ccc1-c1nc2ncccc2[nH]1 (stereo not given)
3,> 46,CC(=O)[C@@]3(O)CC[C@H]4[C@@H]5/C=C(/Cl)\C2=C\C(=O)[C@@H]1C[C@@H]1[C@]2(C)[C@H]5CC[C@]34C
4,> 46,CCCCCCCCOc1ccccc1C(=O)Nc1ccc(C(=O)OCC[N+](C)(CC)CC)cc1.[Br-]
5,> 46,COCCOC(=O)C1=C(C)NC(C)=C(C(=O)OC(C)C)C1c1cccc([N+](=O)[O-])c1 (stereo not given)
6,> 46,Oc1cccc(O)c1O
7,> 46,CC(N)C12CC3CC(CC(C3)C1)C2.Cl (stereo not given)
8,> 46,CC(C)c1ccc2oc3nc(N)c(C(=O)O)cc3c(=O)c2c1
9,> 46,N21/C(=C(/SCCNC=N)C[C@@H]1[C@H](C2=O)[C@H](O)C)C(=O)O
10,> 46,CC1=C(/C=C/C(C)=C/C=C/C(C)=C/C(=O)Oc2c(C)c(C)c3c(c2C)CC[C@@](C)(CCC[C@H](C)CCC[C@H](C)CCCC(C)C)O3)C(C)(C)CCC1
11,> 46,CC(C)NCC(O)COc1ccccc1-n1cccc1 (stereo not given)
12,> 46,CC(C)[C@H](NC(=O)[C@H](CC(=O)O)NC(=O)[C@H](CCCCN)NC(=O)[C@@H](N)CCCNC(=N)N)C(=O)N[C@@H](Cc1ccc(O)cc1)C(=O)O
13,> 46,C[C@@H](O)[C@H]1C(=O)N2C(C(=O)O)=C(S[C@@H]3CN[C@H](C(=O)N(C)C)C3)[C@H](C)[C@H]12
14,> 46,COc1ccc2cc3[n+](cc2c1OC)CCc1cc2c(cc1-3)OCO2.[Cl-]
15,> 46,CC(C)(Oc1ccc(CCNC(=O)c2ccc(Cl)cc2)cc1)C(=O)O
16,> 46,Cl.N=C(N)n1cccn1
17,> 46,CC1=C(C/C=C(\C)CCC[C@H](C)CCC[C@H](C)CCCC(C)C)C(=O)c2ccccc2C1=O
18,> 46,O=C1c2c(O)cccc2Cc2cccc(O)c21
19,> 46,O=C([O-])c1cc(O)c2c3nc4ccccc4oc-3cc(=O)c2n1.[Na+]

row,IC50 [µM],Compound
1,> 46,O=C1O[C@H](CO)[C@@H](O)[C@H](O)[C@H]1O
2,> 46,C[C@H](C(=O)[O-])c1cccc(Oc2ccccc2)c1.C[C@H](C(=O)[O-])c1cccc(Oc2ccccc2)c1.O.O.[Ca+2]
3,> 46,NC1CCCCC1.NC1CCCCC1.O=P(O)(O)OC[C@H](O)CO
4,> 46,O=P(CC(N2C[C@H]([C@H]3CCCCC3)C[C@H]2[C@@](O)=O)=O)(OC(OC(CC)=O)C(C)C)CCCCC1=CC=CC=C1 (stereo not given in full)
5,> 46,CCC1(c2ccccc2)C(=O)NCNC1=O
6,> 46,COc1ccc2c(c1)c1c3n2CCN(C)C3=NCC1
7,> 46,COc1ccc(C(=O)c2ccc(C)cc2)c(O)c1
8,> 46,O=C(O)CNC(=O)c1ccccc1
9,> 46,CN(C)c1ccc(O)c2c1C[C@H]1C[C@H]3[C@H](N(C)C)C(O)=C(C(N)=O)C(=O)[C@@]3(O)C(O)=C1C2=O.Cl
10,> 46,O=C(O)c1cc(N=Nc2ccc(S(=O)(=O)Nc3ccccn3)cc2)ccc1O
11,> 46,CCN(CC)CCNC(=O)c1cc(S(C)(=O)=O)ccc1OC.Cl
12,> 46,O=C2C=1/N=C\NC=1N(C)C(=O)N2C
13,> 46,CCn1nc(C(=O)O)c(=O)c2cc3c(cc21)OCO3
14,> 46,C[C@H](NCCc1ccc(O)cc1)[C@H](O)c1ccc(O)cc1.Cl
15,> 46,Cc1ccccc1OCC(O)CO (stereo not given)
16,> 46,CC[N+](CC)(CC)CCC(O)(c1ccccc1)C1CCCCC1.[Cl-] (stereo not given)
17,> 46,[O-][n+]1cc[n+]([O-])c2ccccc21
18,> 46,O=S(=O)(O)c1cc(I)c(O)c2ncccc12
